Data published in ChEMBL document CHEMBL1909046, “DrugMatrix in vitro pharmacology data”.
pIC50: −log10 of the molar value.

What was measured:
[1] = target: Beta-2 adrenergic receptor (Homo sapiens, UniProt P07550); experiment: DRUGMATRIX: Adrenergic beta2 radioligand binding (ligand: [3H] CGP-12177); type: cell membranes, CHO, Membrane; conditions: cho; Not Active = under 50% inhibition at 10 µM
Substance-P receptor = Substance-P receptor (Homo sapiens, UniProt P25103); type: cell membranes, Membrane; conditions: cho; note: in other assays of this panel Not Active means under 50% inhibition at 10 µM
[2] = target: Prostaglandin G/H synthase 1 (Homo sapiens, UniProt P23219); experiment: biochemical; type: tissue-based, Platelet; conditions: for IC50 / Ki: platelet;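 for all read-outs here: inhibition of COX-1 enzyme activity, with arachidonic acid supplied as substrate; in other assays of this panel Not Active means under 50% inhibition at 10 µM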
D(3) dopamine receptor = D(3) dopamine receptor (Homo sapiens, UniProt P35462); experiment: DRUGMATRIX: Dopamine D3 radioligand binding (ligand: [3H] Spiperone); type: cell membranes, CHO, Membrane; conditions: cho
[3] = target: Sodium-dependent dopamine transporter (Homo sapiens, UniProt Q01959); experiment: DRUGMATRIX: Dopamine Transporter radioligand binding (ligand: [125I] RTI-55); type: cell membranes, CHO-K1, Membrane; conditions: cho-k1; Not Active = under 50% inhibition at 10 µM
[4] = DRUGMATRIX: Glutamate, AMPA radioligand binding (ligand: [3H] AMPA); type: cell membranes, Rattus norvegicus, Wistar, Cerebral cortex, Membrane; conditions: Not Active = under 50% inhibition at 10 µM

Sequence of Prostaglandin G/H synthase 1 (P23219 whole entry): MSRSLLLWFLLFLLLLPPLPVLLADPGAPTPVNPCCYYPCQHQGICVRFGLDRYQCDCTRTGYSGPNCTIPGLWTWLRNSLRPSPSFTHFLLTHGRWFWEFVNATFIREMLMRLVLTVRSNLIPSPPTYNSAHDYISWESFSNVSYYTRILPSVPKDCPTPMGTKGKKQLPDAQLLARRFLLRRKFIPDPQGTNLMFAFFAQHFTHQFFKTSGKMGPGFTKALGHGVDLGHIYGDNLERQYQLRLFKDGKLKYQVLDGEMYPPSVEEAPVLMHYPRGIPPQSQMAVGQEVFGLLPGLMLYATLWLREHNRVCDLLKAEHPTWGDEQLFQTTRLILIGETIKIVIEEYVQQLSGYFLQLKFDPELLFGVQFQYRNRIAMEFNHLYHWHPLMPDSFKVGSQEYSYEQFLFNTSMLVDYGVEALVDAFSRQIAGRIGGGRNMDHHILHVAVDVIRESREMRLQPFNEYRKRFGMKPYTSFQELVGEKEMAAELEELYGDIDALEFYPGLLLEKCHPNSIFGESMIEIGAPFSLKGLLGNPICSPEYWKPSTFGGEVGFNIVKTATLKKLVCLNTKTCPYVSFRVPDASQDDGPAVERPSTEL
Sequence of D(3) dopamine receptor (P35462 whole entry): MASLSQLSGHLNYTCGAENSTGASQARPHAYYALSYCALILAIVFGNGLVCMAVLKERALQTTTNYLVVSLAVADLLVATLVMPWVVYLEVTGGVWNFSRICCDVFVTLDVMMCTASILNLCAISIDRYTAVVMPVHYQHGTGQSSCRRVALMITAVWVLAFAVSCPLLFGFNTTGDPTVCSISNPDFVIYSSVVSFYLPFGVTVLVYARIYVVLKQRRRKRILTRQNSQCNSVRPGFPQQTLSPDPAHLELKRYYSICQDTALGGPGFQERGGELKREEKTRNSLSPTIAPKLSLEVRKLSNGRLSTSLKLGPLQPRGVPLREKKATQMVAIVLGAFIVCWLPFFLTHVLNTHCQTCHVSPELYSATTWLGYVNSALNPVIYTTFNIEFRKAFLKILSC
Sequence of Sodium-dependent dopamine transporter (Q01959 whole entry): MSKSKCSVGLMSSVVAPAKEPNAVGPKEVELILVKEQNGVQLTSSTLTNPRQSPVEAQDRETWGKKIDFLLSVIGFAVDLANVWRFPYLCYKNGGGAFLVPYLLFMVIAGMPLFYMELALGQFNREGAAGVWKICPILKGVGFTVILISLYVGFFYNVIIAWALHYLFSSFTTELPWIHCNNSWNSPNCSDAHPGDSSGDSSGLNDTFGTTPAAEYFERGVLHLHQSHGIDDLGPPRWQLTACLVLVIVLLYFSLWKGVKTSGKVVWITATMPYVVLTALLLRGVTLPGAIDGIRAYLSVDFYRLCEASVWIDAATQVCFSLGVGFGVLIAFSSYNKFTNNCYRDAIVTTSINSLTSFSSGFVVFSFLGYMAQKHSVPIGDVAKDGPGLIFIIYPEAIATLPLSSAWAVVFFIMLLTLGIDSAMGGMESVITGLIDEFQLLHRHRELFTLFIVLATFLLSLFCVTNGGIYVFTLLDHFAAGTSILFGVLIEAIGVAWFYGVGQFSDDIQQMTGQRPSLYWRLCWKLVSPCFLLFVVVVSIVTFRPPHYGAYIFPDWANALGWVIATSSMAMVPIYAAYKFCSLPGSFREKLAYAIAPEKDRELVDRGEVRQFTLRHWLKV
Sequence of Substance-P receptor (P25103 whole entry): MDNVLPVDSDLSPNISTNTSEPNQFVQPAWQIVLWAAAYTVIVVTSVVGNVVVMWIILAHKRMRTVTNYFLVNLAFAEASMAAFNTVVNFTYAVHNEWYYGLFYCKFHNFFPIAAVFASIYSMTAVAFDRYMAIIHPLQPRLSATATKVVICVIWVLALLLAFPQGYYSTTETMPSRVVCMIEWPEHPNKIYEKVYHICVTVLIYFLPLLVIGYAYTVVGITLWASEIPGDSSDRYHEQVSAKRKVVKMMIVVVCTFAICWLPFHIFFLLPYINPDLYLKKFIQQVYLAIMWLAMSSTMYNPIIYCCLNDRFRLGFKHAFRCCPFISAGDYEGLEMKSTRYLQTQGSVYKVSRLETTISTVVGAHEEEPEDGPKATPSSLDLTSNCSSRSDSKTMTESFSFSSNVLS

Cc1cccc(Nc2ccccc2C(=O)O)c1C [MEFENAMIC ACID]
Not Active: IC50 [1] | IC50 (Substance-P receptor) | IC50 (D(3) dopamine receptor) | IC50 [3] | IC50 [4] | Ki [4]
6.94: pIC50 ([2]; read-out: IC50)

CC(=O)O[C@]1(C(C)=O)CC[C@H]2[C@@H]3C=C(C)C4=CC(=O)CC[C@]4(C)[C@H]3CC[C@@]21C [MEGESTROL ACETATE]
Not Active: IC50 [1] | IC50 (Substance-P receptor) | IC50 [2] | IC50 (D(3) dopamine receptor) | IC50 [3] | IC50 [4] | Ki [4]

COc1ccccc1OCC(O)COC(N)=O (stereo not drawn) [METHOCARBAMOL]
Not Active: IC50 [1] | IC50 (Substance-P receptor) | IC50 [2] | IC50 (D(3) dopamine receptor) | IC50 [3] | IC50 [4] | Ki [4]

CN(Cc1cnc2nc(N)nc(N)c2n1)c1ccc(C(=O)N[C@@H](CCC(=O)O)C(=O)O)cc1 [METHOTREXATE]
Not Active: IC50 [1] | IC50 (Substance-P receptor) | IC50 [2] | IC50 (D(3) dopamine receptor) | IC50 [3] | IC50 [4] | Ki [4]

COC(=O)c1ccccc1O [METHYL SALICYLATE]
Not Active: IC50 [1] | IC50 (Substance-P receptor) | IC50 [2] | IC50 (D(3) dopamine receptor) | IC50 [3] | IC50 [4] | Ki [4]

COc1ccc2cc(CCC(C)=O)ccc2c1 [NABUMETONE]
Not Active: IC50 [1] | IC50 (Substance-P receptor) | IC50 [2] | IC50 (D(3) dopamine receptor) | IC50 [3] | IC50 [4] | Ki [4]

O=C(O)c1cccnc1 [NIACIN]
Not Active: IC50 [1] | IC50 (Substance-P receptor) | IC50 [2] | IC50 (D(3) dopamine receptor) | IC50 [3] | IC50 [4] | Ki [4]

CNC(=C[N+](=O)[O-])NCCSCc1csc(CN(C)C)n1 [NIZATIDINE]
Not Active: IC50 [1] | IC50 (Substance-P receptor) | IC50 [2] | IC50 (D(3) dopamine receptor) | IC50 [3] | IC50 [4] | Ki [4]

C[C@]12C/C(=C/O)C(=O)C[C@@H]1CC[C@@H]1[C@@H]2CC[C@@]2(C)[C@H]1CC[C@]2(C)O [OXYMETHOLONE]
Not Active: IC50 [1] | IC50 (Substance-P receptor) | IC50 [2] | IC50 (D(3) dopamine receptor) | IC50 [3] | IC50 [4] | Ki [4]

CC(C)(CO)C(O)C(=O)NCCCO (stereo not drawn) [PANTHENOL]
Not Active: IC50 [1] | IC50 (Substance-P receptor) | IC50 [2] | IC50 (D(3) dopamine receptor) | IC50 [3] | IC50 [4] | Ki [4]

COc1ccc(Cc2nccc3cc(OC)c(OC)cc23)cc1OC [PAPAVERINE]
Not Active: IC50 [1] | IC50 (Substance-P receptor) | IC50 [2] | IC50 (D(3) dopamine receptor) | IC50 [3] | IC50 [4] | Ki [4]

OCCN1CCN(CCCN2c3ccccc3Sc3ccc(Cl)cc32)CC1 [PERPHENAZINE]
Not Active: IC50 [1] | IC50 (Substance-P receptor) | IC50 [2] | IC50 (D(3) dopamine receptor) | IC50 [3] | IC50 [4] | Ki [4]

CCCCC1C(=O)N(c2ccccc2)N(c2ccccc2)C1=O [PHENYLBUTAZONE]
Not Active: IC50 [1] | IC50 (Substance-P receptor) | IC50 [2] | IC50 (D(3) dopamine receptor) | IC50 [3] | IC50 [4] | Ki [4]

Cc1cccc(Nc2cc(Cl)nc(SCC(=O)O)n2)c1C [PIRINIXIC ACID]
Not Active: IC50 [1] | IC50 (Substance-P receptor) | IC50 [2] | IC50 (D(3) dopamine receptor) | IC50 [3] | IC50 [4] | Ki [4]

CC[C@H](C)C(=O)O[C@H]1C[C@H](O)C=C2C=C[C@H](C)[C@H](CC[C@@H](O)C[C@@H](O)CC(=O)O)[C@H]21 [PRAVASTATIN]
Not Active: IC50 [1] | IC50 (Substance-P receptor) | IC50 [2] | IC50 (D(3) dopamine receptor) | IC50 [3] | IC50 [4] | Ki [4]

CC(C)(Sc1cc(C(C)(C)C)c(O)c(C(C)(C)C)c1)Sc1cc(C(C)(C)C)c(O)c(C(C)(C)C)c1 [PROBUCOL]
Not Active: IC50 [1] | IC50 (Substance-P receptor) | IC50 [2] | IC50 (D(3) dopamine receptor) | IC50 [3] | IC50 [4] | Ki [4]

COBALT(II) ACETYLACETONATE
Not Active: IC50 [1] | Ki [1] | IC50 (Substance-P receptor) | Ki (Substance-P receptor) | IC50 [2] | Ki [2] | IC50 (D(3) dopamine receptor) | Ki (D(3) dopamine receptor) | IC50 [3] | Ki [3] | IC50 [4] | Ki [4]

INSULIN HUMAN
Not Active: IC50 [1] | Ki [1] | IC50 (Substance-P receptor) | Ki (Substance-P receptor) | IC50 [2] | Ki [2] | IC50 (D(3) dopamine receptor) | Ki (D(3) dopamine receptor) | IC50 [3] | Ki [3] | IC50 [4] | Ki [4]

POLYVINYL ALCOHOL
Not Active: IC50 [1] | Ki [1] | IC50 (Substance-P receptor) | Ki (Substance-P receptor) | IC50 [2] | Ki [2] | IC50 (D(3) dopamine receptor) | Ki (D(3) dopamine receptor) | IC50 [3] | Ki [3] | IC50 [4] | Ki [4]
